What was measured:
His-Spt5 (fused to Spt4) = target: T1, His-Spt5 (fused to Spt4) (Homo sapiens, UniProt O00267); experiment: Binding assay by intrinsic fluorescence of purified His-Spt5 (fused to Spt4)
T1 construct: His-Rpb1 and His-Spt5 (fused to Spt4 to increase its stability) were each expressed in E. coli; Spt4 (fusion partner); His tag (N); made in house; host or cells: E. coli; purified on nickel agarose beads
Description: Binding assay—In order to measure binding of the indicated compound to Spt5 and/or Pol II; Spt5-Spt4 or Rpb1 fused to a histidine (His) tag were expressed in E. coli (SEQ ID Nos: 2-3, 5-6 and 81) and purified on nickel agarose beads as described in Ashkenazi et al. 2016. The proteins were incubated for 10 minutes with increasing concentrations of the indicated compound in a black 384 wells microplate in a total volume of 20 μl. Binding was assessed by measuring the changes in the intrinsic fluorescence (280 nm) using Cytation™ 5 (BioTek).
Two identified compounds, SPI-21 and SPI-18, were further validated for their direct interaction with either Spt5 or Rpb1 CC domain. […] Using the purified proteins, fluorescence intensity measurements were performed in the presence of increasing concentrations of SPI-21 or SPI-18. This method analyzes binding by monitoring the changes in the intrinsic fluorescence of the proteins as a consequence of conformational changes. […]
Direct interaction with either the Spt5 or the Rpb1 CC domain of SPI-21 and SPI-18 was further validated. […] Using the purified proteins, fluorescence intensity measurements were performed in the presence of increasing concentrations of SPI-21 and SPI-18. This method analyzes binding by monitoring the changes in the intrinsic fluorescence of the proteins as a consequence of conformational changes. […]

[1] = system: pro-inflammatory genes A20, CCL20, IL6, IL8, CXCL2, JUNB and IEX1; experiment: mRNA levels of pro-inflammatory genes under TNFα-induced conditions, HeLa, RT-qPCR; assay type: cell-based, human; details: HeLa cells, SPI 1 hour then TNFα 1 hour
Description: Cell culture—HEK293T, HeLa, MCF7, Jurkat and mouse embryonic fibroblasts (MEFs) cells were grown and maintained in Dulbecco's modified Eagle's medium supplemented with 10% fetal calf serum (Gibco) and 1% penicillin-streptomycin. To avoid NF-κB activity, HeLa cells were kept from reaching confluence and re-plated no more than 10 times following initial thawing. To induce NF-κB activity, cells were treated with […] recombinant human TNF-α (Peprotech) for the indicated times. STHdh Q111 and STHdh Q7 striatal cell lines (Coriell Institute for Medical Research) were grown in Dulbecco's modified Eagle's medium supplemented with 10% fetal calf serum (Gibco), 1% penicillin-streptomycin and 0.4 mg/ml G418 at 33° C. The cells were re-plated no more than 5-6 times, as recommended.
RNA analysis—Total RNA was extracted using Tri-reagent (Bio-Lab Chemicals) and Direct-Zol™ RNA MiniPrep kit (Zymo Research). Following, cDNA was synthesized from […] of total RNA using a High-Capacity cDNA Reverse Transcription Kit (ABI, Thermo Fisher Scientific). cDNA samples were analyzed by quantitative PCR (qPCR) in a ViiA 7 Real-Time PCR System using Fast qPCRBIO SYBR Green Mix (PCR Biosystems).
In the next step, the effect of the identified SPIs on expression of the selected genes following NF-κB activation was analyzed. Specifically, Hela cells were pre-incubated with DMSO or SPI (50 μM or less) for 1 hour followed by treatment with TNFα for an additional 1 hour.

A20 gene = experiment: ChIP of Pol II and Spt5 occupancy of the A20 gene; assay type: cell-based, human; details: for TNFα induction of Pol II and Spt5 levels at the A20 loci: TNFα+ 30 minutes; for Spt5 and Pol II occupancy at 3 loci of the A20 gene: basal conditions (TNFα-)
Description: Chromatin immunoprecipitation (ChIP)—HeLa cells were treated with DMSO (vehicle control) or the indicated compound (50 μM; 60 minutes), followed by TNF-α induction (30 minutes) in 100-mm plates. Following, the cells were cross-linked with 1% formaldehyde for 10 minutes at room temperature, and fixation was terminated by adding 1/20 volume of 2.5 M glycine.
Chromatin extraction and immunoprecipitation were carried out as previously described in Diamant et al., 2012. For immunoprecipitation (IP), 3 μg of anti-RNA polymerase II (ab817, Abcam) anti-Spt5 [previously described in Amir-Zilberstein et al., 2007] or control IgG (SC-2025, Santa Cruz Biotechnology) was added to 1 ml of the soluble chromatin DNA. IP and input samples were analyzed by qPCR as described above.
To further examine the impact of the identified SPIs on chromatin occupancy of Spt5 and Pol II, chromatin immunoprecipitation (ChIP) in the presence of DMSO, SPI-21 or SP-18 followed by 30 minutes TNFα treatment was performed. […] This finding is consistent with the increase in transcription under basal conditions exerted by SPI-21 but not by SPI-18 (FIG. 2A). Upon TNFα induction the levels of Pol II and Spt5 were dramatically elevated and this induction was diminished by both SPI-21 and SPI-18 at all the analyzed loci (FIG. 3G, TNFα+). This finding is consistent with the decrease in transcription under TNFα-induced conditions of both SPI-21 and SIP-18 (FIG. 3A).

Spt5 activities = experiment: Combined effects on the various Spt5 activities (summary of Examples 1-4); assay type: cell-based

Structure (SMILES)	IC50 (His-Spt5 (fused to Spt4))	Down-regulating transcription of pro-inflammatory genes under TNFα induced conditions (i.e. inhibiting transcription elongation of pro-inflammatory genes induced by Spt5) [1]	TNFα induction of Pol II and Spt5 levels at the A20 loci (A20 gene)	Spt5 and Pol II occupancy at 3 loci of the A20 gene (A20 gene)	classification by effect on the various Spt5 activities, in words (Spt5 activities)	effect on intrinsic fluorescence of Spt5 (His-Spt5 (fused to Spt4))
Nc1ccccc1SC(CC(=O)c1cccs1)c1cccs1 (stereo not shown) [SPI-18]	40 µM	+ (+ >50%)	diminished	unchanged	inhibited mainly the positive activity of Spt5 with little or no effect on proximal promoter pausing	
COc1ccc(C=CC(=O)c2cc(O)ccc2O)cc1 [SPI-21]		+++ (+++ represent >80% inhibition)	diminished	moderate but significant enhancement	affect all the tested Spt5 activities	no significant effect

Source: patent US12661353B2, “SPT5 inhibitors and uses thereof” (Yeda Research and Development Co. Ltd., priority 2020, dated 2026)
